Patent US20260008805A1, “ADENOSINE ANALOGS FOR THE TREATMENT OF DISEASE” (BIOINTERVENE, INC., priority 2022, published 2026)
Where two headings read alike, the source gives them in different places.

Key:
human A3 receptors = molecular target: T1, human A3 receptors (Homo sapiens, UniProt P0DMS8); test: Adenosine receptor binding assay ([3H]HEMADO competition); conditions: Cheng-Prusoff, read-out: hA3 Ki
T1 construct: expressed in transfected cells; host or cells: HEK-293 cells, stably transfected; membrane preparation
T1 sequence (P0DMS8 1-318): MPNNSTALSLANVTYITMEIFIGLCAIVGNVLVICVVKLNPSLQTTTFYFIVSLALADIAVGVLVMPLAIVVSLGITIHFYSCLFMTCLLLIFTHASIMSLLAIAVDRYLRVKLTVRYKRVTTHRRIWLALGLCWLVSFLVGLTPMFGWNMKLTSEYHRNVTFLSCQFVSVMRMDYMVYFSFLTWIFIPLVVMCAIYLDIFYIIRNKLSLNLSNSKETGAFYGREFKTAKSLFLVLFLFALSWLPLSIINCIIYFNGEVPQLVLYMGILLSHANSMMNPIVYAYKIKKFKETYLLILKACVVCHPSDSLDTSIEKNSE
Excerpt: Materials and Reference Compounds: [^3H] HEMADO (obtained from (ARC, Cat: ART1456) and [3H] DPCPX (obtained from PerkinElmer Cat no. NET974250UC)). IB-MECA was obtained from Tocris (Bristol, UK) and N6-cyclopentyl adenosine (CPA) is obtained from Sigma-Alrich (Poole, UK). Cell culture media, G418 and hygromycin are obtained from Invitrogen (Paisley, UK). Fetal calf serum is obtained from Perbio Science (Cheshire, UK). All other reagents are obtained from Fisher Chemicals (Loughborough, UK).
The method followed is that of Yates L, Clark J H, Martin T J, James S, Broadley K J, Kidd E J. Radioligand binding and functional responses of ligands for human recombinant adenosine A3 receptors. Auton Autacoid Pharmacol. 2006; 26 (2): 191-200. Cells stably transfected with the human adenosine A3 or A1 receptor are grown in Dulbecco's modified Eagles medium with nutrient mixture F12 containing NaHCO3 and Glutamax. Media is supplemented with 10% fetal calf serum, geneticin (G418; 0.67 mg/mL), hygromycin (500 μg/mL) and adenosine deaminase (1 U/mL). Cells are maintained at 37° C. with 5% CO2 in air. Cells are harvested and homogenized in ice-cold Tris buffer [50 mM Tris, 150 mM NaCl, 1 mM ethylenediaminetetraacetic acid (EDTA), pH 7.4] supplemented with the peptidase inhibitors, 4-(2-aminoethyl)benzene sulfonylfluoride (1 mM) and bacitracin (0.1 mg/mL), using a Polytron homogenizer (3×10 s bursts). The homogenate is spun for 10 min (4° C.) at 500 g. The supernatant is retained and the pellet is re-suspended in the buffer, homogenized and spun as above. The combined supernatants are centrifuged for 15 min (4° C.) at 48,000 g. The resultant pellet is re-suspended in the buffer and centrifuged for a second time at 48,000 g. The membrane pellet is then suspended in Tris buffer containing no peptidase inhibitors or adenosine deaminase and stored at −80° C. at a protein concentration of 1 mg/mL.
Binding Assays: Radioligand-binding assays are performed using the adenosine A3 receptor agonist [^3H] HEMADO and the A1 receptor […] [^3H] DPCPX. Binding assays are conducted in a total volume of 100 μL containing a 50 mM Tris, pH 7.4 buffer with or without 10 mM MgCl2, 20 μg membranes and either 4.154 nM [3H] HEMADO (for the A3 receptor) or 1.6065 nM [^3H] DPCPX (for the A1 receptor). Assays are conducted at room temperature for 60 min (A1 receptor) or 120 min (A3 receptor) and terminated by the addition of 2 ml of ice-coldish buffer (50 mM Tris, pH 7.4 with or without 10 mM MgCl2) and rapid filtration over 0.03% polyethylenimine-treated Whatman GF/C filters using a Brandel cell harvester (Semat International Ltd., St Albans, UK). Filters are then ished three times with 2 ml of ice-cold buffer. The filter-bound radioactivity are counted using a Compugamma counter (LKB Wallac, Turku, Finland). Competition experiments are performed to investigate the ability of reference compounds and embodiments of the invention to inhibit [^3H] HEMADO binding. Non-specific binding are determined using the respective compound at its highest concentration.
Data Analysis: The Kd and Bmax values for binding data are calculated based upon the molar amounts of bound and free [^3H] HEMADO. […] IC50 and Ki values and Hill slopes for inhibition of the radioligand binding by the compounds of the invention are calculated from the ligand competition curves using the Excel spreadsheet and the Kd value calculated for either [^3H] HEMADO or [^3H] DPCPX. The results are expressed as a percent of control specific binding and as a percent inhibition of control specific binding obtained in the presence of the compounds of the invention. The IC50 values (concentration causing a half-maximal inhibition of control specific binding) and Hill coefficients (nH) are determined by non-linear regression analysis of the competition curves generated with mean replicate values using Hill equation curve fitting: […]

[1] = molecular target: T2, human adenosine A3 receptor (Homo sapiens, UniProt P0DMS8); test: Intracellular cAMP levels (inhibition of forskolin-stimulated cAMP production); format: cell-based; conditions: for EC50: CHO-K1 cells expressing human adenosine A3 receptor, forskolin 10 μM; for cAMP Efficacy (%): maximal response as percentage of the response produced by 100 nM IB-MECA
T2 construct: expressed in transfected cells; host or cells: CHO-K1 cells, stably transfected
T2 sequence (P0DMS8 1-318): T1 sequence (P0DMS8 1-318)
Excerpt: The method followed is that published in Yates L, Clark J H, Martin T J, James S, Broadley K J, Kidd E J. Radioligand binding and functional responses of ligands for human recombinant adenosine A3 receptors. Auton Autacoid Pharmacol. 2006 April; 26 (2): 191-200.
Materials and Cell Culture: Adenosine deaminase is obtained from Roche (Lewes, UK). Forskolin is obtained from Sigma-Aldrich (Poole, UK). The sources of other materials are provided above in Example 1. CHO-K1 cells stably transfected with the human adenosine A3 receptor are grown in Dulbecco's modified Eagles medium with nutrient mixture F12 containing NaHCO3 and Glutamax. Media is supplemented with 10% fetal calf serum, geneticin (G418; 0.67 mg/mL), hygromycin (500 μg/mL) and adenosine deaminase (1 U/mL). Cells are maintained at 37° C. with 5% CO2 in air.
CAMP Measurements: Intracellular cAMP production is measured directly using a non-acetylation cAMP enzyme immunoassay (Amersham Biosciences, Little Chalfont, UK). Cultured CHO cells expressing human adenosine A3 receptors are allowed to plate overnight in 96-well plates in culture medium containing adenosine deaminase. Twenty-four hours later, they are incubated with adenosine analogues or compounds of the invention (0.1 nM-1 μM) for 5 min at 37° C., followed by incubation with forskolin (10 μM) for 10 min. The cells are then lysed with 200 μL of lysis reagent 1 provided with the kit for 10 min to release intracellular CAMP. Aliquots of the supernatants are then transferred to a 96-well microtitre plate coated with donkey anti-rabbit IgG; 100-μL cAMP standards (12.5-3200 fmol/well) are also added to the microtitre plate; 100 μL of rabbit anti-cAMP antibody is added to all wells and incubated at 2-5° C. for 2 h. The antiserum is made up in lysis reagent 2, which sequesters the key component in lysis reagent 1 and ensures that CAMP is free for subsequent analysis. Then 50 μL of cAMP peroxidase conjugate is added to all wells and left to incubate for 60 min at 2-5° C. to allow competition for the antibody between the un-labelled and horse radish peroxidase (HRP)-labelled cAMP. Wells are then ished with buffer and 150 μL of enzyme substrate containing 3,3′,5,5′-tetramethylbenzidine/hydrogen peroxide in 20% (v/v) dimethylformamide is added to each well and left to incubate for 60 min on a Titramax 100 microtitre plate shaker (Heidolph Instruments, Schwabach, Germany) at room temperature for color development. The reaction is stopped by the addition of 100 μL of 1 M sulfuric acid and the optical density (OD) read at 450 nm on a spectrophotometric MRX microplate reader (Dynex Technologies, Chantilly, VA, USA).
Analyses: Each sample/standard was analyzed in duplicate and the resulting OD values averaged. The percent bound (B/B0) for each standard and sample was calculated using the following relationship:
[formula] • where B is the specific OD for standard/sample and B0 is the specific OD for the zero standard. A standard curve was generated by plotting % B/B0 as a function of the log fmol cAMP standard per well. The fmol per well value for cAMP in each sample was then read from the graph. The results are expressed as a percent of control agonist response: (measured response/control response)*100 in the presence of the compounds of the invention. Concentration-response curves for inhibition of cAMP production were constructed for all compounds of the invention and reference compounds. The EC50 values (concentration producing a half-maximal response) were determined by non-linear regression analysis of the concentration-response curves generated with mean replicate values using Hill equation curve fitting, according to the equation:
[formula] • where Y=response, A=left asymptote of the curve, D=right asymptote of the curve, C=compound concentration, and C50=EC50, and nH=slope factor. […]

[2] = Table 2, membranes of HEK-293 cells expressing human A3 receptor
[3] = Table 2, # = average between two data points
[4] = Table 1, membranes of HEK-293 cells expressing human A3 receptor

Ki (human A3 receptors; [2]) | EC50 [1, 3] | cAMP Efficacy (%) [1, 3] | SMILES | other results
1.79 nM | – | – | CNC(=O)[C@H]1O[C@@H](n2cnc3c4[nH]c(C)cc4c(Cl)nc32)[C@H](O)[C@@H]1O [1A*] | –
0.543 nM | – | – | CNC(=O)[C@@]12C[C@@H]1[C@@H](n1cnc3c4[nH]c(C)cc4c(Cl)nc31)[C@H](O)[C@@H]2O [2A*] | –
65.7 nM | – | – | CC1Cc2c(Cl)nc3c(ncn3[C@H]3[C@H](O)[C@H](O)[C@]4(CO)C[C@H]34)c2N1 (some centres unmarked) [3A*] | –
1.09 nM | – | – | Cc1cc2c(C#N)nc3c(ncn3[C@H]3[C@H](O)[C@H](O)C4C[C@@H]43)c2[nH]1 (some centres unmarked) [4A*] | –
3.84 nM | 0.82 nM | 105.62% | CNC(=O)[C@@]12C[C@@H]1[C@@H](n1cnc3c4c(c(Cl)nc31)CC(C)N4)[C@H](O)[C@@H]2O (some centres unmarked) [5A*] | –
1.33 nM | 0.38 nM | 102.76% | Cc1cc2c(Cl)nc3c(ncn3[C@@H]3O[C@H](CO)[C@@H](O)[C@H]3O)c2[nH]1 [6A*] | –
0.619 nM | 0.91 nM | 47.98% | Cc1cc2c(C#CC3CC3)nc3c(ncn3[C@H]3[C@H](O)[C@H](O)C4C[C@@H]43)c2[nH]1 (some centres unmarked) [7A*] | –
5.84 nM | 6 nM | 107.96% | CNC(=O)[C@@]12C[C@@H]1[C@@H](n1cnc3c4c(c(Cl)nc31)C(O)CC(C)N4)[C@H](O)[C@@H]2O (some centres unmarked) [8A* and 8B*] | –
5.34 nM | 2.15 nM | 74.92% | O[C@H]1[C@H](n2cnc3c4[nH]c(Cc5ccccc5)cc4c(Cl)nc32)[C@H]2CC2[C@H]1O (some centres unmarked) [9A*] | –
2 nM | 0.48 nM | 105.25% | CNC(=O)[C@@]12C[C@@H]1[C@@H](n1cnc3c4c(c(Cl)nc31)CCC(C)N4)[C@H](O)[C@@H]2O (some centres unmarked) [10A*] | –
3.36 nM | – | – | CNC(=O)[C@@]12C[C@@H]1[C@@H](n1cnc3c4c(c(Cl)nc31)C(=O)CC(C)N4)[C@H](O)[C@@H]2O (some centres unmarked) [11A*] | –
14.8 nM | 11.4 nM | 63.56% | CC1Cc2c(Cl)nc3c(ncn3[C@H]3[C@H](O)[C@H](O)C4C[C@@H]43)c2N1 (some centres unmarked) [12A*] | –
24.1 nM | – | – | CC1CC(=O)c2c(Cl)nc3c(ncn3[C@@H]3[C@@H](O)[C@@H](O)[C@@]4(CO)C[C@@H]34)c2N1 (some centres unmarked) [13A*] | –
2.56 nM | 2.03 nM | 87.04% | Cc1cc2cnc3c(ncn3[C@H]3[C@H](O)[C@H](O)C4C[C@@H]43)c2[nH]1 (some centres unmarked) [14A*] | –
2.27 nM | 0.2 nM | 94.66^# % | Cc1cc2c(Cl)nc3c(ncn3[C@H]3[C@H](O)[C@H](O)C4C[C@@H]43)c2[nH]1 (some centres unmarked) [15A*] | –
45.7 nM | 5.36 nM | 55.74% | CC1CCc2c(Cl)nc3c(ncn3[C@H]3[C@H](O)[C@H](O)C4C[C@@H]43)c2N1 (some centres unmarked) [16A*] | –
36 nM | – | – | CCOc1nc2c(ncn2[C@H]2[C@H](O)[C@H](O)C3C[C@@H]32)c2[nH]c(C)cc12 (some centres unmarked) [21A*] | –
1.8 nM | – | – | Cc1nc2c(Cl)nc3c(ncn3[C@H]3[C@H](O)[C@H](O)C4C[C@@H]43)c2[nH]1 (some centres unmarked) [22A*] | –
0.916 nM | – | – | O[C@H]1[C@H](n2cnc3c4[nH]c(C(F)F)cc4c(Cl)nc32)[C@H]2CC2[C@H]1O (some centres unmarked) [24A*] | –
24.2 nM | 4.15 nM | 96.54% | Cc1cc2c(Cl)nc3c(ncn3[C@H]3[C@H](O)[C@H](O)[C@]4(C(N)=O)C[C@H]34)c2[nH]1 [25A*] | –
98 nM | 100 nM | 5% | Cc1cc2c(Cl)nc3c(ncn3[C@H]3[C@H](O)[C@H](O)[C@]4(C#N)C[C@H]34)c2[nH]1 [26A*] | –
– | – | – | Cn1nnc([C@@]23C[C@@H]2[C@@H](n2cnc4c5[nH]c(C(F)F)cc5c(Cl)nc42)[C@H](O)[C@@H]3O)n1 [Compound 1B] | Ki (human A3 receptors; [4]): 1.09 nM; EC50 ([1]; Table 1): 1 nM; cAMP Efficacy (%) ([1]; Table 1): 5%
– | – | – | Cc1cc2c(Cl)nc3c(ncn3[C@H]3[C@H](O)[C@H](O)[C@]4(c5ncnn5C)C[C@H]34)c2[nH]1 [Compound 7B] | Ki (human A3 receptors; [4]): 151 nM
– | – | – | CCNc1cc(Cl)nc2c1ncn2[C@H]1[C@H](O)[C@H](O)[C@]2(c3nnnn3C)C[C@H]12 [Compound 11B] | Ki (human A3 receptors; [4]): > 806 nM
